From patent publication US12492163B2, “9H-fluorene derivatives or their pharmaceutically acceptable salts” (priority 2020, dated 2025)

Assay: Pharmacokinetic parameters in plasma and brain of mice
Type: in vivo
Protocol: The research was carried out at the Department of Toxicology and Military Pharmacy, Faculty of Military Health Sciences in Hradec Kralove, Defense University in Brno in the Czech Republic, at the Biomedical Research Center and at the Department of Clinical Biochemistry of the University Hospital Hradec Kralove in the Czech Republic. All procedures were carried out under the supervision of the Ethics Committee of the Faculty of Military Health Sciences (No. 20/19; MO 215611/2019-684800). Male and female ICR-CD1 strain of domestic mice (Mus musculus) (body weight approx. 20-25 g) were used in the research. The animals were kept in standard, appropriately sized cages, divided into groups of a maximum of 8 animals. The animals in the test groups were administered the test compound intraperitoneally (doses in the acute toxicity study: 10, 20, 40 and 60 mg/kg, dose in the study of pharmacokinetic parameters 10 mg/kg). Control groups received 1% Tween 80.
After administration of compound JT-3 at the MTD dose (10 mg/kg), animals were subjected to deep terminal sedation at 0, 3, 5, 10, 20, 30, 45, 60, 90, 120, 240 and 360 minutes after dosing (six animals per time interval; n=6) and their blood was drawn by cardiac puncture into heparinized tubes. Samples were centrifuged (3000×g, 10 minutes, 10° C.). Plasma was stored at −80° C. until analyzed by HPLC. Blood in the cerebral vessels would interfere with the actual concentration levels in the brain tissue, therefore the animals were perfused transcardially with physiological saline (0.9% NaCl) for 5 minutes (10 mL/min). After perfusion, the skull was opened and the brain was carefully removed and stored at −80° C. until analyzed by HPLC.
Quantitative analyzes of JT-3 in plasma and brain were performed by HPLC. The method has been fully validated for plasma and partially validated for brain homogenate according to the EMA and FDA guidelines for the validation of bioanalytical methods [Research, C, Anonymous].

Question: What does the source list for `O[C@H](CNCC1CC1)[C@H](Cc1ccccc1)NC1c2ccccc2-c2ccccc21` [JT-3, (2R,3S)-3-((9H-fluoren-9-yl)amino)-1-((cyclopropylmethyl)amino)-4-phenylbutan-2-ol]?
Answer: Vz (both, ICR-CD1, mouse, in vivo, ip, 10 mg/kg): 40.93 ± 4.95 L/kg; Tmax (brain, mice, 10 mg/kg i.p.): 0.9167 ± 0.113 h; time of maximum concentration after administration (mice, 10 mg/kg i.p.): 60 min; penetration into the brain (mice, 10 mg/kg i.p., higher concentrations in the CNS than in plasma): Very good penetration; Half-life (plasma, elimination phase, mice, 10 mg/kg i.p.): 2.6907 ± 0.2375 h; Cmax (plasma, mice, 10 mg/kg i.p.): 430.09 ± 57.94 ng/mL; MRT (plasma, mice, 10 mg/kg i.p.): 3.6183 ± 0.2942 h; Tmax (plasma, mice, 10 mg/kg i.p.): 0.3888 ± 0.0828 h; λz (terminal phase rate constant) (plasma, mice, 10 mg/kg i.p.): 0.0045 ± 0.0004 min⁻¹; Cmax (sexes, ICR-CD1, mouse, in vivo, ip, 10 mg/kg): 833 ± 62.3 ng/g
